Measurements as given in US7897723B2, “ErbB receptor-derived peptide fragments” (Københavns Universitet, priority 2006, dated 2011).

How the values were obtained:
L929 cells [1] = experiment: Cell proliferation (BrdU incorporation); format: cell-based
Procedure: 2000 L929 cells (ECACC no: 85011425) per well were seeded in a 96 well plate in full medium (containing 10% foetal calf serum) or starvation medium (serum-free). Peptides, ErbB1 kinase inhibitor PD153035 (Calbiochem), and EGF (Sigma-Aldrich) were added immediately after seeding of the cells (for experiments done in full serum) or after 8 hours of incubation (for experiments done in starvation medium) in the concentrations indicated in figures. Cells were grown for 6 hours, then 10 μM bromodeoxyuridine (BrdU) was added, and cells were grown for additional 18 hours. Then, BrdU incorporation in the cells was assayed using the Biotrak ELISA System, version 2 from Amersham Biosciences Europe GmbH (Buckinghamshire, UK) following the manufacturer's protocol.

L929 cells [2] = experiment: Cell motility assay (time-lapse video recording); format: cell-based
Procedure: Subconfluent L929 cells were infected with Ad5.CMV-GFP virus according to the manufacturer instruction (Clontech). 24 h after transfection, cells were seeded at a density of 4×10^3 cells/cm^2 and grown for 24 h. Cells were then treated with the indicated concentration of peptide and EGF, and cell positions were recorded every 15 min at 25 fixed positions in each culture for 4 hours using automatic time-lapse video recording. The workstation employed comprised an Eclipse TE300 inverted microscope (Nikon, Japan) equipped with a heated, movable, computer controlled microscope stage. Recordings were performed using the PRIGRA software (developed at the Protein Laboratory, Copenhagen, Denmark).
Analysis of individual cell motility was performed using an automatic procedure for single cell motility evaluation. Briefly, automatic marking of cell positions in consecutive video frames was used for determination of the migration tracks of the cells during the whole recording period. The obtained cell coordinate data were used for the calculation of motility parameters by means of the ‘complex overlapping’ method. Briefly, the mean squared cell displacement, ? d^2 ? , was calculated as the Euclidean distance between two points corresponding to the initial and final position of the cell. The rate of diffusion, R, was calculated by fitting the curve of ? d^2 ? plotted against time to the equation ? d^2(ti) ? =R(τ−P(1−e^(−τ/P))), • where ti is the time interval of interest, τ is the time interval between observations, i.e. 15 min, and P is the persistence time in direction (28). The mean cell speed, Sτ, was calculated as the mean cell displacement taking place between discrete observations ( ? dτ ? ) divided by the time interval between discrete observations (τ), according to the equation:
[formula] • The mean cell-path-length, ? L ? , for a sample of a population of cells at a given time of observation, was calculated as:
[formula] • The locomotive index, LI, was calculated as the ratio of the mean cell displacement and the mean cell-path-length:
[formula] LI was used as a measure of the directional persistence of the cells.

HN5 cells = experiment: Cell viability / cell growth (MTS staining); format: cell-based, human; details: HN5 cells
Procedure: 2000 HN5 cells per well were seeded in a 96 well plate in full medium (containing 10% fetal calf serum) or starvation medium (serum-free). After 12 hours of incubation, peptides or ErbB1 kinase inhibitor PD153035 (Calbiochem) and/or EGF (Sigma-Aldrich) were added in the concentrations indicated in figures. Cells were grown for 72 hours, then 20 μl MTS One Solution Reagent (Promega, Madison, Wis., USA) were added per 100 μl culture medium in each well, and the plates were incubated for 1-2 hours at 37° C., followed by absorbance measurements at 490 nm.

ErbB1 [3] = target: T1, ErbB1 (Homo sapiens, UniProt P00533); experiment: ErbB receptor phosphorylation, NR6 wtEGFR cells; format: cell-based; parameters: expressed in transfected cells; host or cells: NR6 fibroblastoid cells (NR6 wtEGFR); details: 10 ng/ml EGF for 10 min, immunoblotting (FIG. 7)
Procedure: The cells employed for this assay were NR6 wtEGFR cells, which are fibroblastoid cells stably transfected with ErbB1, and human head and neck tumor-derived HN5 cell. Confluent NR6 wtEGFR or HN5 cells were treated with peptide in the indicated concentrations for 30 min, then stimulated with 10 ng/ml EGF (Sigma-Aldrich, St. Louis, Mo., USA) for 10 min. Cells were lysed in lysis buffer (1% (v/v) Triton X-100, 150 mM NaCl, 10 mM Tris pH 7.4, 1 mM EDTA, 1 mM EGTA, 0.5% (v/v) NP-40, phosphatase inhibitors (Phosphatase Inhibitor Cocktail Set II from Calbiochem, La Jolla, Calif., USA) and protease inhibitors (Complete™ Protease Inhibitor Cocktail from Boehringer Mannheim Biochemica, Mannheim, Germany)), and cleared lysate samples containing equal amounts of total protein (as determined by a bicinchoninic acid assay (Pierce, Rockford, Ill., USA)) were subjected in duplicates to 4-12% SDS-PAGE and immunoblotting. […] The intensity of bands was quantified using densitometric analysis employing the software package GeneTools (Syngene, Cambridge, UK).
NR6 wtEGFR cells (a fibroblastoid cell line stably transfected with ErbB1) were treated with peptide in the indicated concentrations for […], then stimulated with 10 ng/ml EGF for 10 min. […] The intensity of bands was quantified using densitometric analysis employing the software package GeneTools (Syngene, Cambridge, UK).

ErbB1 [4] = target: T1, ErbB1; experiment: ErbB receptor phosphorylation, HN5 cells; format: cell-based; parameters: the ErbB1 overexpressing human head and neck cancer cell line HN5; endogenous in cells; host or cells: HN5 human head and neck cancer cells; details: 100 μM peptide for 30 min, 10 ng/ml EGF for 10 min (FIG. 8)
Procedure: The cells employed for this assay were NR6 wtEGFR cells, which are fibroblastoid cells stably transfected with ErbB1, and human head and neck tumor-derived HN5 cell. Confluent NR6 wtEGFR or HN5 cells were treated with peptide in the indicated concentrations for 30 min, then stimulated with 10 ng/ml EGF (Sigma-Aldrich, St. Louis, Mo., USA) for 10 min. Cells were lysed in lysis buffer (1% (v/v) Triton X-100, 150 mM NaCl, 10 mM Tris pH 7.4, 1 mM EDTA, 1 mM EGTA, 0.5% (v/v) NP-40, phosphatase inhibitors (Phosphatase Inhibitor Cocktail Set II from Calbiochem, La Jolla, Calif., USA) and protease inhibitors (Complete™ Protease Inhibitor Cocktail from Boehringer Mannheim Biochemica, Mannheim, Germany)), and cleared lysate samples containing equal amounts of total protein (as determined by a bicinchoninic acid assay (Pierce, Rockford, Ill., USA)) were subjected in duplicates to 4-12% SDS-PAGE and immunoblotting. One membrane was probed with anti-phospho-EGFR (phosphotyrosine 1068) antibody (Cell Signaling Technology, Danvers, Mass., USA), the other with anti-EGFR antibody (Cell Signaling Technology). Detection was carried out using horseradish peroxidase (HRP)-conjugated secondary antibodies (DAKO, Denmark) and enhanced chemiluminiscence (Pierce). The intensity of bands was quantified using densitometric analysis employing the software package GeneTools (Syngene, Cambridge, UK).

“LVYNKLTFQLEPNPHTK (Inherbin 3 peptide) [Inherbin3]” was tested, and the “effect on EGF-induced cell proliferation” value (L929 cells [1]; L929 cells, full medium, BrdU incorporation (FIG. 2, FIG. 3)) was “able to inhibit EGF-induced cell proliferation significantly”, the “inhibition of the EGF-induced effects” value (L929 cells [1]; summary for cell proliferation, cell motility and ErbB1 phosphorylation in cells with a lower ErbB1 expression level) was roughly 100% and the “effect on mean cell speed” value (L929 cells [2]; L929 cells (FIG. 5C)) was “did not significantly affect the mean cell speed”. For the same sequence, the “effect on locomotive index, LI” value (L929 cells [2]; L929 cells (FIG. 5D)) was “reflected the changes seen in rate of diffusion”, the “effect on rate of diffusion, R” value (L929 cells [2]; L929 cells, absence of EGF, peptide dose 10 μM (FIG. 5B)) was “stimulated the rate of diffusion to the level of the EGF-induced response” and the “effect on EGF-induced increase in rate of diffusion, R” value (L929 cells [2]; L929 cells, with EGF (FIG. 5B)) was “significantly inhibited”. For the same sequence, the “effect on EGF-induced increase in rate of diffusion, R” value (L929 cells [2]; L929 cells, with EGF, peptide dose 40 μM (FIG. 5B)) was “completely blocked the EGF-induced increase in rate of diffusion”, the “effect on serum-induced cell growth” value (HN5 cells; full medium containing 10% serum (FIG. 6B)) was “inhibited serum-induced cell growth” and the “inhibition of the EGF-induced increase in cell growth” value (HN5 cells; starvation medium, EGF-stimulated, 3 days, MTS (FIG. 6A)) was roughly 35%. For the same sequence, the “effect on basal cell growth” value (HN5 cells; starvation medium, without EGF-stimulation (FIG. 6A)) was “no effect on the basal cell growth”, the “effect on EGF-induced ErbB1 phosphorylation” value (ErbB1 [3]) was “inhibited EGF-induced ErbB1 phosphorylation significantly” and the “effect on EGF-induced ErbB1 phosphorylation” value (ErbB1 [4]) was “significantly inhibited EGF-induced ErbB1 phosphorylation”.
